Experimental data from US8871680B2, “Herbicidal compositions comprising 4-amino-3-chloro-5-fluoro-6-(4-chloro-2-fluoro-3-methoxyphenyl) pyridine-2-carboxylic acid or a derivative thereof and a di-methoxy-pyrimidine and derivatives thereof” (Dow AgroSciences LLC, priority 2012, dated 2014).

Experiments:
ECHOR = assay: In-water applied weed control, transplanted paddy rice (greenhouse); format: in vivo, Echinochloa oryzoides (Ard.) Fritsch; details: 42.2 gae/ha
Protocol: (§1) Weed seeds or nutlets of the desired test plant species were planted in puddled soil (mud) prepared by mixing a shredded, non-sterilized mineral soil (50.5 percent silt, 25.5 percent clay, and 24 percent sand, with a pH of about 7.6 and an organic matter content of about 2.9 percent) and water at a 1:1 volumetric ratio. The prepared mud was dispensed in 365 mL aliquots into 16-ounce (oz.) non-perforated plastic pots with a surface area of 86.59 square centimeters (cm^2) leaving a headspace of 3 centimeters (cm) in each pot. Mud was allowed to dry overnight prior to planting or transplanting. Rice seeds were planted in Sun Gro MetroMix® 306 planting mixture, which typically has a pH of 6.0 to 6.8 and an organic matter content of about 30 percent, in plastic plug trays. Seedlings at the second or third leaf stage of growth were transplanted into 860 mL of mud contained in 32-oz. non-perforated plastic pots with a surface area of 86.59 cm^2 4 days prior to herbicide application. The paddy was created by filling the headspace of the pots with 2.5 to 3 cm of water. When required to ensure good germination and healthy plants, a fungicide treatment and/or other chemical or physical treatment was applied. The plants were grown for 4-22 days in a greenhouse with an approximate 14 hr photoperiod which was maintained at about 29′C during the day and 26° C. during the night. Nutrients were added as Osmocote® (19:6:12, N:P:K+minor nutrients) at 2 g per 16-oz. pot and 4 g per 32-oz. pot. Water was added on a regular basis to maintain the paddy flood, and supplemental lighting was provided with overhead metal halide 1000-Watt lamps as necessary. The plants were employed for testing when they reached the first through fourth true leaf stage.
(§2) Treatments consisted of the acid or esters of 4-amino-3-chloro-5-fluoro-6-(4-chloro-2-fluoro-3-methoxy-phenyl)pyridine-2-carboxylic acid (compound A) each formulated as an SC and various herbicidal components alone and in combination. Forms of compound A were applied on an acid equivalent basis.
(§3) Other herbicidal components were applied on an active ingredient basis and included the dimethoxy-pyrimidine acid acetolactate synthase (ALS)-inhibiting herbicides bispyribac-sodium formulated as Regiment® 80 WP, pyriminobac-methyl formulated as Hie Clean®, and pyriftalid (technical grade material).
(§4) Treatment requirements for each compound or herbicidal component were calculated based upon the rates being tested, the concentration of active ingredient or acid equivalent in the formulation, an application volume of 2 mL per component per pot, and an application area of 86.59 cm^2 per pot.
(§5) For formulated compounds, a measured amount was placed in an individual 100 or 200 mL glass vial and was dissolved in a volume of 1.25% (v/v) Agri-Dex® crop oil concentrate to obtain application solutions.
(§6) For technical grade compounds, a weighed amount was placed in an individual 100 to 200 mL glass vial and was dissolved in a volume of acetone to obtain concentrated stock solutions. […] The concentrated stock solutions obtained were diluted with an equivalent volume of an aqueous mixture containing 2.5% (v/v) crop oil concentrate so that the final application solutions contained 1.25% (v/v) crop oil concentrate.
(§7) Applications were made by injecting with a pipetter appropriate amounts of the application solutions, individually and sequentially, into the aqueous layer of the paddy.
(§8) Control plants were treated in the same manner with the solvent blank. […]

CYPRO = assay: as above; format: in vivo, Cyperus rotundus L.
Protocol: as §1, §2, §3, §4, §5, §6, §7
(§9) Control plants were treated in the same manner with the solvent blank. Applications were made so that all treated plant material received the same concentrations of acetone and crop oil concentrate.
(§10) The treated plants and control plants were placed in a greenhouse as described above and water was added as needed to maintain a paddy flood. […]

ECHCG = assay: as above; format: in vivo, Echinochloa crusgalli (L.) Beauv.
Protocol: as §1, §2, §3, §4, §5, §6, §7, §9, §10

DIGSA = assay: Postemergence foliar-applied weed control, direct seeded rice (greenhouse); format: in vivo, Digitaria sanguinalis (L.) Scop.
Excerpt: (§11) Seeds or nutlets of the desired test plant species were planted in a soil matrix prepared by mixing a loam or sandy loam soil (e.g., 28.6 percent silt, 18.8 percent clay, and 52.6 percent sand, with a pH of about 5.8 and an organic matter content of about 1.8 percent) and calcareous grit in an 80 to 20 ratio. The soil matrix was contained in plastic pots with a volume of 1 quart and a surface area of 83.6 square centimeters (cm^2). When required to ensure good germination and healthy plants, a fungicide treatment and/or other chemical or physical treatment was applied. The plants were grown for 8-22 days in a greenhouse with an approximate 14 hr photoperiod which was maintained at about 29° C. during the day and 26° C. during the night. Nutrients (Peters Excel® 15-5-15 5-Ca 2-Mg and iron chelate) were applied in the irrigation solution as needed and water was added on a regular basis. Supplemental lighting was provided with overhead metal halide 1000-Watt lamps as necessary. The plants were employed for testing when they reached the first through fourth true leaf stage.
as §2, with “(Compound A),” for “(compound A)”, “SC (suspension concentrate),” for “SC”
as §3, with “80WP, pyribenzoxim (technical grade material),” for “80 WP,”, “Hie-Clean® 1.2% GR dissolved in water,” for “Hie Clean®,”
(§12) Treatment requirements were calculated based upon the rates being tested, the concentration of active ingredient or acid equivalent in the formulation, and a 12 mL application volume at a rate of 187 L/ha.
(§13) For treatments comprised of formulated compounds, measured amounts of compounds were placed individually in 25 mL glass vials and diluted in a volume of 1.25% (v/v) Agri-Dex® crop oil concentrated to obtain 12× stock solutions. […] Application solutions were prepared by adding an appropriate amount of each stock solution (e.g., 1 mL) and diluted to the appropriate final concentrations with the addition of 10 mL of an aqueous mixture of 1.25% (v/v) crop oil concentrate so that the final spray solutions contained 1.25+/−0.005% (v/v) crop oil concentrate.
For treatments comprised of technical compounds, weighed amounts can be placed individually in 25 mL glass vials and dissolved in a volume of 97:3 v/v acetone/DMSO to obtain 12× stock solutions. […] Application solutions can be prepared by adding an appropriate amount of each stock solution (e.g., 1 mL) and diluted to the appropriate final concentrations with the addition of 10 mL of an aqueous mixture of 1.5% (v/v) crop oil concentrate so that the final spray solutions contain 1.25% (v/v) crop oil concentrate. […]
(§14) For treatments comprised of formulated and technical compounds, weighed amounts of the technical materials were placed individually in 25 mL glass vials and dissolved in a volume of 97:3 v/v acetone/DMSO to obtain 12× stock solutions, and measured amounts of the formulated compounds were placed individually in 25 mL glass vials and diluted in a volume of 1.5% (v/v) crop oil concentrate or water to obtain 12× stock solutions. […]

SCPMA = assay: In-water applied weed control, transplanted paddy rice (greenhouse); format: in vivo, Bolboschoenus maritimus (L.) Palla
Protocol: as §1, §2, §3, §4, §5, §6, §7, §9, §10

ECHCO = assay: as above; format: in vivo, Echinochloa colona (L.) Link
Protocol: as §1, with “Water was added on a regular basis to maintain the paddy flood, and supplemental lighting was provided with overhead metal halide 1000-Watt lamps as necessary. The plants were employed for testing when they reached the first through fourth true leaf stage.” left out
as §4
For formulated compounds, a measured amount was placed in an individual 100 or 200 mL glass vial and was dissolved in a volume of 1.25% (v/v) Agri-Dex® crop oil concentrate to obtain application solutions. […]

IPOHE = assay: Postemergence foliar-applied weed control, direct seeded rice (greenhouse); format: in vivo, Ipomoea hederacea Jacq.
Excerpt: as §11
as §2, with “(Compound A),” for “(compound A)”, “SC (suspension concentrate),” for “SC”
as §3, with “80WP, pyribenzoxim (technical grade material),” for “80 WP,”, “Hie-Clean® 1.2% GR dissolved in water,” for “Hie Clean®,”
as §12, §13
For treatments comprised of technical compounds, weighed amounts can be placed individually in 25 mL glass vials and dissolved in a volume of 97:3 v/v acetone/DMSO to obtain 12× stock solutions. […] Application solutions can be prepared by adding an appropriate amount of each stock solution (e.g., 1 mL) and diluted to the appropriate final concentrations with the addition of 10 mL of an aqueous mixture of 1.5% (v/v) crop oil concentrate so that the final spray solutions contain 1.25% (v/v) crop oil concentrate. When technical materials are used, the concentrated stock solutions can be added to the spray solutions so that the final acetone and DMSO concentrations of the application solutions are 16.2% and 0.5%, respectively.
as §14

FIMMI = assay: In-water applied weed control, transplanted paddy rice (greenhouse); format: in vivo, Fimbristylis miliacea (L.) Vahl
Protocol: as §1, §2, §3, §4, §5, §6, §7, §9, §10

BRAPP = assay: Postemergence foliar-applied weed control, direct seeded rice (greenhouse); format: in vivo, Brachiaria platyphylla (Griseb.) Nash; details: 4.38 gae/ha
Excerpt: as §11, with “stage. […]” for “stage.”
as §12
For treatments comprised of formulated compounds, measured amounts of compounds were placed individually in 25 mL glass vials and diluted in a volume of 1.25% (v/v) Agri-Dex® crop oil concentrated to obtain 12× stock solutions. […]
as §14

LEFCH = assay: In-water applied weed control, transplanted paddy rice (greenhouse); format: in vivo, Leptochloa chinensis (L.) Nees
Protocol: as §1, §2, §3, §4, §5, §6, §7, §8

With `COc1c(Cl)ccc(-c2nc(C(=O)O)c(Cl)c(N)c2F)c1F` [Compound A Acid, 4-amino-3-chloro-6-(4-chloro-2-fluoro-3-methoxyphenyl)-5-fluoropyridine-2-carboxylic acid] as the molecule, how does the “Visual Weed Control (%)-20 DAA ECHOR Obs” value (ECHOR) read?
Its value is 18%.

What about the “Visual Weed Control (%)-21 DAA CYPRO Obs” value (CYPRO; 8.75 gae/ha) of the same molecule?
The value was 30%.

And the “Visual Weed Control (%)-21 DAA CYPRO Obs” value (CYPRO; 17.5 gae/ha)?
Its value is 40%.

What about the “Visual Weed Control (%)-21 DAA CYPRO Obs” value (CYPRO; 35 gae/ha) of the same molecule?
The value was 70%.

And the “Visual Weed Control (%) - 20 DAA ECHCG Obs” value (ECHCG; 8.75 gae/ha)?
The value was 0%.

What about the “Visual Weed Control (%) - 20 DAA ECHCG Obs” value (ECHCG; 17.5 gae/ha) of the same molecule?
Its value is 35%.

And the “Visual Weed Control (%) - 20 DAA ECHCG Obs” value (ECHCG; 35 gae/ha)?
Its value is 55%.

What about the “Visual Weed Control (%) - 20 DAA ECHCG Obs” value (ECHCG; 42.2 gae/ha) of the same molecule?
The value was 18%.

And the “Visual Weed Control (%)-24 DAA DIGSA Obs” value (DIGSA; 4.38 gae/ha)?
The value was 20%.

What about the “Visual Weed Control (%)-24 DAA DIGSA Obs” value (DIGSA; 8.75 gae/ha) of the same molecule?
The value was 25%.

And the “Visual Weed Control (%)-24 DAA DIGSA Obs” value (DIGSA; 17.5 gae/ha)?
The value was 25%.

And the “Visual Weed Control (%)-21 DAA SCPMA Obs” value (SCPMA; 8.75 gae/ha)?
The value was 0%.

What about the “Visual Weed Control (%)-21 DAA SCPMA Obs” value (SCPMA; 17.5 gae/ha) of the same molecule?
Its value is 0%.

What about the “Visual Weed Control (%)-20 DAA SCPMA Obs” value (SCPMA; 35 gae/ha) of the same molecule?
The value was 0%.

And the “Visual Weed Control (%)-21 DAA SCPMA Obs” value (SCPMA; 35 gae/ha)?
The value was 0%.

And the “Visual Weed Control (%)-20 DAA SCPMA Obs” value (SCPMA; 42.2 gae/ha)?
The value was 0%.

What about the “Visual Weed Control (%)-20 DAA SCPMA Obs” value (SCPMA; 70 gae/ha) of the same molecule?
Its value is 0%.

What about the “Visual Weed Control (%)-21 DAA ECHCO Obs” value (ECHCO; 8.75 gae/ha) of the same molecule?
Its value is 0%.

What about the “Visual Weed Control (%)-21 DAA ECHCO Obs” value (ECHCO; 17.5 gae/ha) of the same molecule?
The value was 20%.

What about the “Visual Weed Control (%)-24 DAA IPOHE Obs” value (IPOHE; 4.38 gae/ha) of the same molecule?
The value was 10%.

And the “Visual Weed Control (%)-24 DAA IPOHE Obs” value (IPOHE; 8.75 gae/ha)?
The value was 10%.

And the “Visual Weed Control (%)-24 DAA IPOHE Obs” value (IPOHE; 17.5 gae/ha)?
The value was 30%.

And the “Visual Weed Control (%)-24 DAA IPOHE Obs” value (IPOHE; 17.5 gae/ha, second part of Table 3)?
Its value is 25%.

And the “Visual Weed Control (%)-24 DAA IPOHE Obs” value (IPOHE; 35 gae/ha, second part of Table 3)?
Its value is 48%.

And the “Visual Weed Control (%)-21 DAA FIMMI Obs” value (FIMMI; 8.75 gae/ha)?
Its value is 50%.

What about the “Visual Weed Control (%)-21 DAA FIMMI Obs” value (FIMMI; 17.5 gae/ha) of the same molecule?
Its value is 85%.

What about the “Visual Weed Control (%)-21 DAA FIMMI Obs” value (FIMMI; 35 gae/ha) of the same molecule?
The value was 85%.

And the “Visual Weed Control (%)-22 DAA BRAPP Obs” value (BRAPP)?
Its value is 45%.

And the “Visual Weed Control (%)-21 DAA LEFCH Obs” value (LEFCH; 8.75 gae/ha)?
Its value is 0%.

And the “Visual Weed Control (%)-21 DAA LEFCH Obs” value (LEFCH; 17.5 gae/ha)?
The value was 0%.

What about the “Visual Weed Control (%)-20 DAA LEFCH Obs” value (LEFCH; 42.2 gae/ha) of the same molecule?
The value was 15%.
